Test results taken from PMC12006171, “Marsupial cathelicidins: characterization, antimicrobial activity and evolution in this unique mammalian lineage” (Frontiers in Immunology, 2025).
In brackets after ≈: the same amount, converted by molar mass. Read-outs that look alike come from different tables or passages of the source. Where a SMILES comes first, the peptide text is derived from it.

How the values were obtained:
[1] = tested on: Staphylococcus aureus ATCC 29213; experiment: microbe, parasite or virus in culture; assay type: cell-based; settings: ATCC 29213; read-out: MIC S. aureus ATCC
Outline: (§1)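 Bacteria at a final 5 x 10^5 CFU/mL were incubated 20–24 h at 35 °C with DMSO-solubilized peptides serially diluted to 64–0.125 μg/mL in Mueller Hinton broth (± lysed horse blood, ± divalent cations). MIC read as no visible growth; bactericidal action from colony counts compared with the inoculum.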

[2] = tested on: Pseudomonas aeruginosa clinical isolate - animal; experiment: microbe, parasite or virus in culture; assay type: cell-based
Outline: as §1

[3] = tested on: Escherichia coli ATCC 25922; experiment: microbe, parasite or virus in culture; assay type: cell-based
Outline: as §1

[4] = tested on: Pseudomonas aeruginosa ATCC 27853; experiment: microbe, parasite or virus in culture; assay type: cell-based
Outline: as §1

[5] = tested on: Escherichia coli clinical isolate - animal; experiment: microbe, parasite or virus in culture; assay type: cell-based
Outline: as §1

[6] = tested on: Staphylococcus aureus clinical isolate - animal; experiment: microbe, parasite or virus in culture; assay type: cell-based; settings: clinical isolate - animal; read-out: MIC S. aureus
Outline: as §1

E. coli ATCC 25922 = experiment: Killing kinetics (time kill assay); assay type: cell-based, Escherichia coli; settings: MHB, 35°C, sampled 1-24 hours, n = 2
Protocol: The killing kinetics assay was conducted using mid-logarithmic phase cultures of E. coli ATCC 25922 and S. aureus ATCC 29213 in MHB. Cultures were adjusted to a 0.5 McFarland standard, diluted in MHB, and then 100µL was added to each culture tube containing 10mL pre-warmed MHB to give a final inoculum concentration of 5 x 10^5 CFU/mL. A sterility control of 100uL MHB, growth control (no cathelicidin), and vehicle control (DMSO) were also included. Furthermore, 10uL was immediately removed from the growth control tube, diluted 1/1000 in saline and 100µL plated onto MHA in duplicate to confirm inoculum density. To establish colony counts from 0 hours of cathelicidin treatment, 200µL was removed from each culture tube and serially diluted ten-fold in saline from 10^0 to […] in a total volume of 200µL. Then, 10µL of each dilution was spotted onto MHA in duplicate, which were incubated at 35°C for 24 hours.
All culture tubes were then incubated at 35°C static. At 1, 2, 4, 6, 8, 10, 12, and 24 hours post-cathelicidin treatment, 200µL was removed from each culture tube for dilution and plated on MHA as described above. […] Counts of duplicates were averaged, and the log10 CFU/mL graphed against time. This was used as input for one-way ANOVA (p < 0.05) followed by Dunnett’s post hoc test.

Candida krusei ATCC 6258 = experiment: microbe, parasite or virus in culture; assay type: cell-based; settings: ATCC 6258; read-out: MIC C. krusei ATCC
Outline: (§2)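 MIC defined as lowest peptide level preventing visible growth after 20–24 h at 35°C. Candida tested in RPMI-1640 MOPS; bacteria in Mueller Hinton broth, optionally with 10% lysed horse blood and/or divalent cations. Final peptide range 64-0.125 μg/mL, starting inoculum 5 x 10^5 CFU/mL, per CLSI M07-A/M26A.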

[7] = tested on: Candida albicans Clinical isolate - human; experiment: microbe, parasite or virus in culture; assay type: cell-based; settings: Clinical isolate - human; read-out: MIC C. albicans
Outline: as §2

[8] = tested on: Streptococcus agalactiae ATCC 12386; experiment: microbe, parasite or virus in culture; assay type: cell-based; settings: ATCC 12386; read-out: MIC S. agalactiae ATCC
Outline: as §2

[9] = tested on: Candida parapsilosis ATCC 22019; experiment: microbe, parasite or virus in culture; assay type: cell-based; settings: ATCC 22019
Outline: as §2

[10] = tested on: Streptococcus agalactiae Clinical isolate - animal; experiment: microbe, parasite or virus in culture; assay type: cell-based; settings: clinical isolate - animal; read-out: MIC S. agalactiae
Outline: as §2

[11] = tested on: Streptococcus pneumoniae ATCC 49619; experiment: microbe, parasite or virus in culture; assay type: cell-based; settings: ATCC 49619; read-out: MIC S. pneumoniae ATCC
Outline: as §2

[12] = tested on: six bacteria (S. aureus, E. coli, P. aeruginosa; ATCC and clinical isolate); assay type: cell-based
Outline: as §1

[13] = tested on: six bacteria (S. aureus, E. coli, P. aeruginosa; ATCC and clinical isolate); design: method as in 4 sources, ref Peel et al 2016 ||| ref Peel et al 2021 ||| ref Wang et al 2011 ||| ref Peel et al 2017; settings: mature peptide; Y/N summary from earlier study; ref Peel et al 2016; cited from earlier work
[14] = tested on: Tasmanian devil facial tumor disease; settings: cited from earlier work
Description: Many marsupial and monotreme cathelicidins were closely related to the classic cathelicidins found in eutherians. These cathelicidins sit within clade II in the phylogenetic tree, sister to eutherians but were not orthologous ( Figure 3 ). Classic marsupial cathelicidins were encoded in cluster A in the genome of all marsupials and monotremes studied, syntenic to the single cathelicidin gene/cluster in eutherians ( Figure 2 ). Many of these were antimicrobial and bactericidal, with MICs equal to or less than eutherian peptides such as cow BMAP-27 and -28 ([87]) and human LL-37, including again ...

[15] = tested on: three fungi (Candida krusei, Candida parapsilosis, Candida albicans); design: method as in 4 sources, ref Peel et al 2016 ||| ref Peel et al 2021 ||| ref Wang et al 2011 ||| ref Peel et al 2017; settings: mature peptide; Y/N summary from earlier study; ref Peel et al 2016; cited from earlier work
[16] = clinical isolate, MHB without cations, 5 x 10^5 CFU/mL, 35°C 20–24 hours, duplicate
[17] = clinical isolate, superscript value, cation-adjusted Mueller Hinton broth
[18] = clinical isolate, value in brackets, 99.9% reduction in CFU/mL
[19] = MHB without cations, 5 x 10^5 CFU/mL, 35°C 20–24 hours, duplicate
[20] = superscript value, cation-adjusted Mueller Hinton broth
[21] = value in brackets, 99.9% reduction in CFU/mL

## CC[C@H](C)[C@H](NC(=O)[C@H](CCCCN)NC(=O)[C@@H](NC(=O)[C@H](CC(N)=O)NC(=O)[C@H](CCCCN)NC(=O)[C@H](CC(C)C)NC(=O)[C@H](CCCNC(=N)N)NC(=O)[C@H](CCCCN)NC(=O)[C@H](CCCCN)NC(=O)[C@@H](NC(=O)[C@H](CO)NC(=O)[C@H](CCCCN)NC(=O)CNC(=O)[C@H](CC(C)C)NC(=O)[C@H](CCCCN)NC(=O)[C@H](CCCCN)NC(=O)[C@H](CC(C)C)NC(=O)[C@H](CCCCN)NC(=O)[C@H](CCCCN)NC(=O)[C@H](CCCNC(=N)N)NC(=O)[C@H](CC(C)C)NC(=O)CNC(=O)[C@H](CCCNC(=N)N)NC(=O)[C@@H](N)CO)[C@@H](C)CC)[C@@H](C)CC)C(=O)NCC(=O)N[C@@H](Cc1ccc(O)cc1)C(=O)N[C@@H](CO)C(=O)N[C@H](C(=O)N1CCC[C@H]1C(=O)N[C@@H](Cc1ccccc1)C(=O)N1CCC[C@H]1C(=O)NCC(=O)O)[C@@H](C)CC [PspeCath1] (H-SRGLRKKLKKLGKSIKKRLKNIKIGYSIPFPG-OH; N-terminus and C-terminus assumed)
[1]
  MIC: >17.5 µM
[2]; clinical isolate - animal
  MBC P. aeruginosa: 4.3 µM
[2]; clinical isolate - animal, read-out: MIC P. aeruginosa
  MIC: 2.1 µM (≈ 7.67 µg/mL)
[2]; clinical isolate - animal, read-out: MIC in the presence of cations P. aeruginosa
  MIC: 2.1 µM
[2]; [16]
  MIC P. aeruginosa: 8 µg/mL (≈ 2.19 µM)
[2]; [17]
  MIC in the presence of cations P. aeruginosa: 8 µg/mL
[2]; [18]
  MBC P. aeruginosa: 16 µg/mL
[3]; ATCC 25922
  MBC E. coli ATCC: 2.1 µM
[3]; ATCC 25922, read-out: MIC E. coli ATCC
  MIC: 1 µM (≈ 3.65 µg/mL)
[3]; ATCC 25922, read-out: MIC in the presence of cations E. coli ATCC
  MIC: 1 µM
[3]; [19]
  MIC E. coli ATCC: 4 µg/mL (≈ 1.09 µM)
[3]; [20]
  MIC in the presence of cations E. coli ATCC: 4 µg/mL
[3]; [21]
  MBC E. coli ATCC: 8 µg/mL
[4]; ATCC 27853
  MBC P. aeruginosa ATCC: 2.1 (2.1)^2.1 µM
  MIC P. aeruginosa ATCC: 2.1 (2.1)^2.1 µM
  MIC in the presence of cations P. aeruginosa ATCC: 2.1 (2.1)^2.1 µM
[4]; [19]
  MIC P. aeruginosa ATCC: 8 (8)^8 µg/mL
[4]; [20]
  MIC in the presence of cations P. aeruginosa ATCC: 8 (8)^8 µg/mL
[4]; [21]
  MBC P. aeruginosa ATCC: 8 (8)^8 µg/mL
[5]; clinical isolate - animal
  MBC E. coli: 1 µM
  MIC: 1 µM (≈ 3.65 µg/mL)
  MIC in the presence of cations E. coli: 0.5 µM
[5]; [16]
  MIC E. coli: 4 µg/mL (≈ 1.09 µM)
[5]; [17]
  MIC in the presence of cations E. coli: 2 µg/mL
[5]; [18]
  MBC E. coli: 4 µg/mL
[6]
  MIC: >17.5 µM
E. coli ATCC 25922; 0.5x MIC
  Number of hours to cause a significant reduction in log CFU/mL of E. coli ATCC (p < 0.05): 2 hours
E. coli ATCC 25922; 2x MIC
  Number of hours to cause a significant reduction in log CFU/mL of E. coli ATCC (p < 0.05): 1 hours
E. coli ATCC 25922; MIC
  Number of hours to cause a significant reduction in log CFU/mL of E. coli ATCC (p < 0.05): 2 hours
Candida krusei ATCC 6258
  MIC: >17.5 µM
[7]
  MIC: >17.5 µM
[8]
  MIC: >17.5 µM
[9]
  MFC C. parapsilosis ATCC: > 17.5 µM
[9]; read-out: MIC C. parapsilosis ATCC
  MIC: 8.75 µM (≈ 32 µg/mL)
[10]
  MIC: >17.5 µM
[11]
  MIC: >17.5 µM
[12]
  MIC against at least one strain: 4 µg/mL (≈ 1.09 µM)

## KIKRIGLGGFIGRILDRIRRLG [SahaCath5, Tasmanian devil cathelicidin, reference compound]
[13]
  Antibacterial (MIC <64ug/mL): Y (Peel et al 2016) (Antibacterial (MIC <64ug/mL))
[14]
  Toxicity to Tasmanian devil facial tumor disease: toxic to Tasmanian devil facial tumor disease
[15]
  Antifungal (MIC <64ug/mL): Y (Peel et al 2016) (Antifungal (MIC <64ug/mL))

## KRIRFFERIRDRLRDLGNRIKNRIRDFFS [SahaCath6, Tasmanian devil cathelicidin, reference compound]
[13]
  Antibacterial (MIC <64ug/mL): Y (Peel et al 2016) (Antibacterial (MIC <64ug/mL))
[14]
  Toxicity to Tasmanian devil facial tumor disease: toxic to Tasmanian devil facial tumor disease
[15]
  Antifungal (MIC <64ug/mL): Y (Peel et al 2016) (Antifungal (MIC <64ug/mL))
